Measured values from paper PMC4183650 (Journal of the American Chemical Society, 2014).

Key:
[1] = test system: VanA VRE; conditions: clinically resistant phenotypes (VanA and VanB); cited from earlier work
[2] = test system: panel of Gram-positive bacteria (VSSA, MRSA, VanA and VanB VRE); experiment: In vitro antimicrobial assay, panel summary in text; assay type: cell-based, S. aureus, E. faecalis, E. faecium
[3] = both D-Ala-D-Ala and D-Ala-D-Lac ligands; cited from earlier work

Vancomycin [compound 1]
loss in antimicrobial activity in resistant phenotypes [1]: 1000 fold

[Ψ[C(=NH)NH]Tpg^4]vancomycin [compound 3]
MIC against VanA resistant bacteria ([2]; VanA resistant bacteria): 0.5 mg/L

[Ψ[C(=NH)NH]Tpg^4]vancomycin aglycon [compound 9]
binding affinity for both target ligands relative to vancomycin aglycon for D-Ala-D-Ala [3]: ≤ 2 fold

[Ψ[C(=S)NH]Tpg^4]vancomycin [compound 2]
MIC against all vancomycin sensitive and resistant strains ([2]; whole panel: VSSA, MRSA, VanA and VanB VRE): > 32 mg/L
